Experiments:
Assay type in all cases: biochemical, human
[1] = test system: blood immediately after collected from a normal person; assay: Normal blood coagulation time; settings: for Normal blood coagulation time: standard control 42.5
Protocol: (3) Normal Blood Coagulation Time (Second):
The sulfated polysaccharide 50 μl was separately put (the concentration was adjusted so that the final concentration was a measured concentration) in advance into plastic test tubes (3.3 ml blood collected tube, manufactured by IWAKI Co., Ltd.), and each 1 ml of blood immediately after collected from a normal person was put into the test tubes containing the sulfated polysaccharide and quickly mixed, and the test tubes were repetitively inclined to measure time (second) in which the fluidity disappeared.

[2] = test system: extrinsic pathway coagulation; assay: Prothrombin time (PT); settings: for PT: standard control 12.6
From the text: (5) Prothrombin Time (PT):
The present method is a method for inspecting dynamics of extrinsic pathway coagulation. The present method has sensitivity to qualitative and quantitative abnormality in the factor II (prothrombin), the factor V, the factor VII, the factor X and the factor I (fibrinogen), and it is scarcely influenced by the […] and the factor VIII. First, normal (normal volunteer) blood citrate-collected (collected in a plastic test tube charged with 3.13 wt % sodium citrate of 1/10 volume) was subjected to centrifugal separation at 3000 rpm for 10 minutes to obtain supernatant plasma. The PT time was obtained by mixing plasma for inspection with a PT reagent (a mixed solution of tissue thromboplastin and calcium chloride) to measure fibrin-depositing time (second) (using an automatic measuring apparatus). The sample of the sulfated polysaccharide was added to the plasma for inspection in an addition concentration of 0.001 to 1 mg/ml, and normal plasma was used for a standard control.

[3] = test system: intrinsic pathway coagulation; assay: Activated partial thromboplastin time (APTT)
From the text: (4) Activated Partial Thromboplastin Time (APTT):
The present method is a method for inspecting dynamics of intrinsic pathway coagulation. The present method has sensitivity to qualitative and quantitative abnormality in the factor XII, the factor XI, high molecular weight kininogen, prekallikrein, the factor IX, the factor VIII, the factor X, the factor V, the factor II (prothrombin) and the factor I (fibrinogen). First, normal (normal volunteer) blood citrate-collected (collected in a plastic test tube charged with 3.13 wt % sodium citrate of 1/10 volume) was subjected to centrifugal separation at 3000 rpm for 10 minutes to obtain supernatant plasma. The APTT time was obtained by mixing plasma for inspection with an APTT reagent and then measuring fibrin-depositing time (second) after adding a calcium chloride solution (using an automatic measuring apparatus). The sulfated polysaccharide was added to the plasma for inspection in an addition concentration of 0.001 to 1 mg/ml, and normal plasma was used for a standard control.

[4] = addition concentration 1 mg/ml in normal plasma, standard control 35 (30 in Example 1)
[5] = addition concentration 0.001 mg/ml in normal plasma
[6] = addition concentration 0.01 mg/ml in normal plasma
[7] = addition concentration 0.1 mg/ml in normal plasma
[8] = addition concentration 1 mg/ml in normal plasma
[9] = addition concentration 0.001 mg/ml in normal plasma, standard control 35
[10] = addition concentration 0.01 mg/ml in normal plasma, standard control 35
[11] = addition concentration 0.1 mg/ml in normal plasma, standard control 35
[12] = addition concentration 0.001 mg/ml
[13] = addition concentration 0.01 mg/ml
[14] = addition concentration 0.1 mg/ml

Substance	coagulation time of normal blood, extension (in words) ([1]; addition of 0.01 mg/ml)	PT time, extension (in words) ([2]; gellan sulfate added to plasma, versus sample without gellan sulfate)	APTT [3, 4] [s]	PT [2, 5] [s]	PT [2, 6] [s]	PT [2, 7] [s]	PT [2, 8] [s]	APTT [3, 9] [s]	APTT [3, 10] [s]	APTT [3, 11] [s]	Normal blood coagulation time [1, 12] [min]	Normal blood coagulation time [1, 13] [min]	Normal blood coagulation time [1, 14] [min]	Normal blood coagulation time ([1]; addition concentration 1 mg/ml) [min]	coagulation time of normal blood, extension (in words) ([1]; 1 mg/ml added)
chondroitin sulfate [reference compound]	not observed at all to be extended														
gellan sulfate [Example 1]		significant extension of the time was not observed	95												
gellan sulfate [Example 2]			≥ 300	11.6	11.7	15.8	≥ 300	38.1	30	≥ 300	54	93	230	≥ 600	
gellan sulfate [Example 3]			≥ 300	11.3	11.8	19.3	≥ 300	49	103.5	≥ 300	58.9	138.8	216.3	≥ 600	
gellan sulfate [Example 4]			≥ 300	13	12	14	≥ 300	45	45	≥ 300	39.9	72	≥ 600	≥ 600	
gellan sulfate [compound 1, reference compound]															not observed to be extended
heparin [reference compound]			≥ 300	13	13	≥ 300	≥ 300	50	≥ 300	≥ 300	105.6	≥ 600	≥ 600	≥ 600	
